Measured values published in patent US12582604B2, “Stable solid dispersion of a B-RAF kinase dimer inhibitor, methods of preparation, and uses therefor” (BEIGENE, LTD., priority 2019, dated 2026).
≈ marks a conversion by molar mass, not a printed value. Entries after “also recorded” stand apart in the source; their conditions may differ.

Experiments:
[1] = Solubility measurement (shaking 200 rpm at 25° C., HPLC); type: physicochemical
[2] = Pharmacokinetic comparison of Forms A-H in rats (Example 14); type: in vivo
Text: Pharmacokinetic Comparison of Form a, B, C, D, E, F, G and H in Rats
(§1) Powder of Form A with particle sizes of D90=62.4 μm after micronization. The material content (purity) was not less than 98.0%.
Powder of Form B with particle sizes of D90=69.9 μm, D10=3.5 um, […] after micronization. The material content (purity) was not less than 98.0%.
Powders of Forms C, D, E, F, G and H with particle sizes of D90<600 μm after micronization. The material content (purity) was not less than 98.0%.
Rats, male and female, were used in this study.
An appropriate amount of each substance was weighted and was dispersed in 0.5% sodium carboxymethyl cellulose. A suspension was prepared at the desired concentration of Compound 1 for each substance. All the doses and concentrations of Compound 1 were calculated with freebase in this study.
(§2) The dosing solutions were freshly prepared prior to dose administration. The actual body weights and actual volume injected were recorded accordingly. The rats were fasted overnight and were allowed to intake food four hours after dosing. Each suspension was administrated orally to rats at a dose ranged from 0.5 to 5 mg/kg. Blood samples (˜1.0 mL) were collected at pre-dose and at different times up to 36 hours post-dosing via cephalic vein plexus. Whole blood was processed by centrifugation and plasma samples were collected and kept at freezer prior to analysis. Plasma samples were processed by protein precipitation. Concentrations of Compound 1 in the plasma samples were determined using a validated liquid chromatography-tandem mass spectrometry (LC-MS/MS) method. The plasma concentration-time data were analyzed using a non-compartmental model using Pharsight WinNonlin.

[3] = Long-term and accelerated stability studies (impurities, optical purity, XRPD, water content); type: physicochemical; conditions: for Total impurities T0: initial
[4] = system: RAF family of serine/threonine kinases; conditions: especially against BRAF/CRAF dimers; cited from earlier work
[5] = Hygroscopicity by dynamic vapor sorption (DVS); type: physicochemical; conditions: for Hygroscopicity (in words): DVS, 80% RH
[6] = Pharmacokinetic comparison of Forms A-H in rats (Example 14); type: in vivo; conditions: rat, plasma
[7] = Pharmacokinetic comparison of Form A and Form F in dogs (Example 15); type: in vivo, Beagle dogs; conditions: for half-life: read-out: T½ (converted)
Procedure: Pharmacokinetic Comparison of Form A and Form F in Dogs
as §1
Powder of Form F with particle sizes of D90<200 μm after micronization. The material content (purity) was not less than 98.0%.
Beagle dogs, male and female, were used in this study.
An appropriate amount of each substance was weighed and was disperse in 0.5% sodium carboxymethyl cellulose. A suspension was prepared at the desired concentration of Compound 1 for each substance. All the doses and concentrations of Compound 1 were calculated with freebase in this study.
as §2, with “dogs” for “rats”

[8] = Long-term and accelerated stability studies (impurities, optical purity, XRPD, water content); type: physicochemical
Procedure: Chiral purity and polymorph results had no changes when stored at 25° C./60% RH for up to 24 months.

[9] = both sexes, beagle, dog, plasma, 0.5 mg/kg, 0.5 mpk IV
[10] = both sexes, beagle, dog, plasma, 5 mg/kg, 5 mpk PO
[11] = 25° C./60% RH up to 24 months and 40° C./75% RH up to 6 months
[12] = both sexes, iv, 1 mg/kg, 1 mpk IV

## O=C1CCc2c(Oc3ccc4c(c3)[C@H]3[C@H](NC(=O)N[C@@H]5[C@H]6Oc7ccc(Oc8ccnc9c8CCC(=O)N9)cc7[C@@H]56)[C@H]3O4)ccnc2N1 [Impurity-1]
[1]; water and other common recrystallization solvents
  Solubility (in words): very low solubilities

## O=C1CCc2c(Oc3ccc4c(c3)[C@H]3[C@H](NC(=O)Nc5cc(F)c(F)cc5F)[C@H]3O4)ccnc2N1 [Form B, 1-((1S,1aS,6bS)-5-((7-oxo-5,6,7,8-tetrahydro-1,8-naphthyridin-4-yl)oxy)-1a,6b-dihydro-1H-cyclopropa[b]benzofuran-1-yl)-3-(2,4,5-trifluorophenyl)urea]
[2]; 5 mpk PO, 5 mg/kg
  AUC(0-t): 13134 ng·h/mL
  T1/2: 2.47 h
[2]; PO
  Cmax and AUC0-inf compared with the amorphous solid dispersions (in words): lower
  Cmax, AUC0-inf and F(%) compared to crystalline Form A (in words): higher
[3]; 40° C./75% RH
  Time at which solid form is still stable by XRPD (no crystalline peaks): ≥ 14 days

## O=C1CCc2c(Oc3ccc4c(c3)[C@H]3[C@H](NC(=O)Nc5cc(F)c(F)cc5F)[C@H]3O4)ccnc2N1 [Compound 1, 1-((1S,1aS,6bS)-5-((7-oxo-5,6,7,8-tetrahydro-1,8-naphthyridin-4-yl)oxy)-1a,6b-dihydro-1H-cyclopropa[b]benzofuran-1-yl)-3-(2,4,5-trifluorophenyl)urea]
[3]; crystalline form, 25° C./60% RH up to 12 months
  Chemical purity change: does not show any significant chemical purity change
[3]; crystalline form, 25° C./60% RH up to 12 months and 40° C./75% RH up to 6 months
  Optical purity change: no optical purity changes
[4]
  Inhibitory activity (in words): potent inhibitory activity
[5]; 80% relative humidity
  Weight gain (water gain) by DVS: 4.96%
[5]
  Hygroscopicity (in words): moderately hygroscopic
[6]; po, 5 mpk, crystalline form, preliminary DMPK studies
  bioavailability: ~20%
[1]; crystalline or neat amorphous form, water, 0.1 HCl, buffer solutions of different pH
  Solubility (in words): poor solubility

## O=C1CCc2c(Oc3ccc4c(c3)[C@H]3[C@H](NC(=O)Nc5cc(F)c(F)cc5F)[C@H]3O4)ccnc2N1 [Form A, 1-((1S,1aS,6bS)-5-((7-oxo-5,6,7,8-tetrahydro-1,8-naphthyridin-4-yl)oxy)-1a,6b-dihydro-1H-cyclopropa[b]benzofuran-1-yl)-3-(2,4,5-trifluorophenyl)urea]
[2]; 1 mpk IV (reference)
  F: 100%
[2]; 5 mpk PO, 5 mg/kg
  AUC(0-t): 5716 ng·h/mL
[2]; both sexes, rat, plasma, po, 5 mg/kg, 5 mpk PO
  half-life: 2.94 h
[7]; 0.5 mpk IV (reference)
  F: 100%
[7]; 5 mpk PO
  F: 34%
[7]; [9]
  AUC(0-t): 6870 ng·h/mL
  clearance: 1.22 mL/min/kg
  half-life: 11 h
[7]; both sexes, beagle, dog, plasma, 0.5 mg/kg, 0.5 mpk IV, read-out: Vdss
  Vd: 0.97 L/kg
[7]; [10]
  AUC(0-t): 23400 ng·h/mL
  Cmax: 1120 ng/mL
  half-life: 11 h
[8]; 25° C./60% RH
  Time at which solid form is still stable by XRPD: ≥ 6 months
[8]; [11]
  Optical purity change: no optical purity changes
[3]
  Storage time without obvious decomposition: over 12 months
[3]; 25° C./60% RH study
  Total impurities T0: 1.0%
[3]; [11]
  Chemical purity change: no significant chemical purity change
[3]; 25° C./60% RH, 12 months
  Crystalline form change by XRPD: changed to the crystalline form; also recorded: from Form A to Form A*
[3]; 25° C./60% RH, 24 months
  Total impurities T24: 1.0%
[3]; 40° C./75% RH
  Time at which solid form is still stable by XRPD: ≥ 6 months
[3]; 40° C./75% RH study
  Total impurities T0: 1.0%
[3]; 40° C./75% RH, 6 months
  Total impurities T6: 1.0%
[5]
  Hygroscopicity (in words): moderately hygroscopic
[5]; after dynamic vapor sorption
  Crystalline form after DVS: changed to the Crystalline Form A*
[6]; both sexes, 1 mg/kg, 1 mpk IV
  clearance: 3.15 mL/min/kg
[6]; both sexes, 1 mg/kg, 1 mpk IV, read-out: Vdss
  Vd: 1.15 L/kg
[6]; [12]
  AUC(0-t): 5330 ng·h/mL
  half-life: 4.2 h
[1]; 0.1N HCl, simulated gastric fluid
  solubility: 20 µg/mL (≈ 41.5 µM)
[1]; 5% HTAB, aqueous with cosolvent or surfactant or cyclodextrin
  solubility: 960 µg/mL (≈ 1990 µM)
[1]; 5% Pluronic F68, aqueous with cosolvent or surfactant or cyclodextrin
  solubility: < 0.1 µg/mL
[1]; 5% SLS, aqueous with cosolvent or surfactant or cyclodextrin
  solubility: 1000 µg/mL (≈ 2070 µM)
[1]; 20% hydroxypropyl-β-cyclodextrin (HP-β-CD), aqueous with cosolvent or surfactant or cyclodextrin
  solubility: 550 µg/mL (≈ 1140 µM)
[1]; 20% sulfobutyl ether-β-cyclodextrin (SBE-β-CD), aqueous with cosolvent or surfactant or cyclodextrin
  solubility: 550 µg/mL (≈ 1140 µM)
[1]; DMA, organic solvent or mixture
  solubility at 2 h: > 372000 µg/mL
[1]; DMSO, organic solvent or mixture
  solubility at 2 h: > 95400 µg/mL
[1]; n-heptane, organic solvent or mixture
  solubility: < 0.1 µg/mL
[1]; pH 1.2 buffer solution, pH 1.2, simulated gastric fluid
  solubility: 15 µg/mL (≈ 31.1 µM)
[1]; pH 4.5 buffer, pH 4.5, aqueous buffer
  solubility: < 0.1 µg/mL
[1]; pH 6.8 buffer, pH 6.8, aqueous buffer
  solubility: < 0.1 µg/mL
[1]; pH 7.4 buffer solution, pH 7.4, aqueous buffer
  solubility: < 0.1 µg/mL
[1]; water
  solubility: < 0.1 µg/mL
